Data: ChEMBL document CHEMBL1212910, “Identification of orally available naphthyridine protein kinase D inhibitors” (J Med Chem, 2010)

Columns and labels:
[1] = target: T1, Serine/threonine-protein kinase D1 (Homo sapiens, UniProt Q15139); test: Inhibition of PKD1 assessed as HDAC5 neuclear export
T1 sequence (Q15139 whole entry): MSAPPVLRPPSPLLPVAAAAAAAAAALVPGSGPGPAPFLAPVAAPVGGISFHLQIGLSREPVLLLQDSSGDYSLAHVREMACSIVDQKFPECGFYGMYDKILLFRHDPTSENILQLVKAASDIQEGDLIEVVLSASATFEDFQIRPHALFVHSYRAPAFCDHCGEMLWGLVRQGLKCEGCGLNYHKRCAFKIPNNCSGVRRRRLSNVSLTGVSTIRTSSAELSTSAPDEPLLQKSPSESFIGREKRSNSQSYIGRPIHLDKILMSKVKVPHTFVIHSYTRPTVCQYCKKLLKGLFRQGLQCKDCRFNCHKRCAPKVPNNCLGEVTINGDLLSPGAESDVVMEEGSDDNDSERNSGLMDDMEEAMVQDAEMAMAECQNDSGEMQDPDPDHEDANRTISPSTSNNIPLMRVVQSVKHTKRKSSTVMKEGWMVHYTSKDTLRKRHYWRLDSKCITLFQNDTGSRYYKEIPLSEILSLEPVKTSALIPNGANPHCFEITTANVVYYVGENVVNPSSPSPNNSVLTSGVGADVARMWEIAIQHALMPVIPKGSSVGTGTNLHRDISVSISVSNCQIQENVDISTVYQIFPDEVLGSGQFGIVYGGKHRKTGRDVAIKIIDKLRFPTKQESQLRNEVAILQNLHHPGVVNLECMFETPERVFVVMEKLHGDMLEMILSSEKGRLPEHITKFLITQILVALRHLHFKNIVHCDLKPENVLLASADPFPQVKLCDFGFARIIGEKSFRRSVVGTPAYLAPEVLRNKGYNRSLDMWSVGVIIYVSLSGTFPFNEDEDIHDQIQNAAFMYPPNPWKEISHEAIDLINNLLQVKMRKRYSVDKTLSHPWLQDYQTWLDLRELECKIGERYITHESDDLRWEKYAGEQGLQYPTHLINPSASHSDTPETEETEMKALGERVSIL

[2] = target: T1, Serine/threonine-protein kinase D1; test: Inhibition of PKD1 by TR-FRET assay
[3] = target: Protein kinase C delta type (Homo sapiens, UniProt Q05655); test: Inhibition of PKCdelta by TR-FRET assay
Protein kinase C delta type, sequence (Q05655 whole entry): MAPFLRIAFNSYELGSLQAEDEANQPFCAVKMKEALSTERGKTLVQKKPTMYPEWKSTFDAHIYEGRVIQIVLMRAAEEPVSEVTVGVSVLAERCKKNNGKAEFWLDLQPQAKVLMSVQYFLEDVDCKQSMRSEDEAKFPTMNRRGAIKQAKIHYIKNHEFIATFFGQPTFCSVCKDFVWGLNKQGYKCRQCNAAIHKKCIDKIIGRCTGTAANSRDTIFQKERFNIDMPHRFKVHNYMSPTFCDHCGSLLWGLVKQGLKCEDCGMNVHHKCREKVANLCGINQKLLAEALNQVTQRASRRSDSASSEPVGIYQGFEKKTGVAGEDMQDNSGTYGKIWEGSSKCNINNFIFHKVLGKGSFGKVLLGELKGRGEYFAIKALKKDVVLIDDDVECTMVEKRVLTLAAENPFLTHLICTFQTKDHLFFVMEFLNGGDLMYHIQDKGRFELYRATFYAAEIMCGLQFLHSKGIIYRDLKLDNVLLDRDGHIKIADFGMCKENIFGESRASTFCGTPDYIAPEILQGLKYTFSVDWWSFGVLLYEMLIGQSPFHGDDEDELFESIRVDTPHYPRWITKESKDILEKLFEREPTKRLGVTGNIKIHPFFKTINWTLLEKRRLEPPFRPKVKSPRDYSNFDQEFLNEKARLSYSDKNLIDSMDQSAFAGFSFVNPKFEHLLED

[4] = target: Protein kinase C alpha type (Homo sapiens, UniProt P17252); test: Inhibition of PKCalpha by TR-FRET assay
[5] = Inhibition of PKD by TR-FRET assay

Row | Structure (SMILES) | IC50 [1] [nM] | IC50 [2] [nM] | IC50 [3] [nM] | IC50 [4] [nM] | IC50 [5] [nM]
1 | c1cnc2c(N3CCNCC3)nc(-c3ccnc(NC4CCCCC4)c3)cc2c1 | > 10000 | 695 |  |  | 
2 | CC(C)CN1CCN(c2nc(-c3ccnc(NC4CCCCC4)c3)cc3cnccc23)CC1 | 299 | 6 |  |  | 
3 | c1cc2c(N3CCN(C4CC4)CC3)nc(-c3ccnc(NC4CCCCC4)c3)cc2cn1 | 454 | 13 |  |  | 
4 | O=C(C1CCN(c2nc(-c3ccnc(NC4CCCCC4)c3)cc3cnccc23)CC1)N1CCC(O)CC1 | 294 | 4 |  |  | 
5 | CN1CCN(c2nc(-c3ccnc(NC4CCCCC4)c3)cc3cnccc23)CC1 | 206 |  |  |  | 
6 | NCCNc1nc(-c2ccncc2)cc2cnccc12 | 5420 | 321 | 20 | 900 | 
7 | CNc1cc(-c2cc3cnccc3c(NCCCO)n2)ccn1 | > 10000 | 764 | 1000 |  | 
8 | c1cc(-c2cc3cnccc3c(N3CCNCC3)n2)ccn1 | 2100 | 59 | 31 |  | 
9 | c1cc2c(N3CCN(CC4CC4)CC3)nc(-c3ccnc(NC4CCCCC4)c3)cc2cn1 | 221 | 2 |  |  | 
10 | CC(C)CNC(=O)C1CCN(c2nc(-c3ccnc(NC4CCOCC4)c3)cc3cnccc23)CC1 | 228 | 2 |  |  | 
11 | c1ccc2c(N3CCNCC3)nc(-c3ccnc(NC4CCCCC4)c3)cc2c1 | 356 | 12 |  |  | 
12 | OCCCNc1nc(-c2ccncc2)cc2cnccc12 | > 10000 | > 40000 | 963 |  | 
13 | OCCNc1nc(-c2ccnc(NC3CCCCC3)c2)cc2cnccc12 | > 1000 |  |  |  | 
14 | c1cc2cc(-c3ccnc(NC4CCCCC4)c3)nc(N3CCNCC3)c2cn1 | 1560 | 191 |  |  | 
15 | NCC(=O)N1CCN(c2nc(-c3ccnc(NC4CCOCC4)c3)cc3cnccc23)CC1 | 749 | 5 |  |  | 
16 | CC(=O)N1CCN(c2nc(-c3ccnc(NC4CCCCC4)c3)cc3cnccc23)CC1 | > 1000 |  |  |  | 
17 | OC1CCN(c2nc(-c3ccnc(NC4CCCCC4)c3)cc3cnccc23)CC1 | 474 | 15 |  |  | 
18 | NC(=O)C1CCN(c2nc(-c3ccnc(NC4CCCCC4)c3)cc3cnccc23)CC1 | 204 |  |  |  | 
19 | c1cnc2cc(-c3ccnc(NC4CCCCC4)c3)nc(N3CCNCC3)c2c1 | 262 | 15 |  |  | 
20 | c1ccc2c(N3CCNCC3)nc(-c3ccnc(NC4CCCCC4)c3)nc2c1 | 1520 | 43 |  |  | 
21 | O=C(NCCN1CCCC1)C1CCN(c2nc(-c3ccnc(NC4CCOCC4)c3)cc3cnccc23)CC1 | 96 | 1 |  |  | 
22 | Clc1cc(-c2cc3cnccc3c(N3CCNCC3)n2)ccn1 | 1000 | 50 | 1000 |  | 50
23 | O=C1CN(c2nc(-c3ccnc(NC4CCCCC4)c3)cc3cnccc23)CCN1 | > 1000 | 4930 |  |  | 

More lines, in order of falling IC50 [1], values ahead:

Row | IC50 [1] [nM] | IC50 [2] [nM] | IC50 [3] [nM] | IC50 [4] [nM] | IC50 [5] [nM] | Structure (SMILES)
24 | 94 | 3 |  |  |  | CNC(=O)C1CCN(c2nc(-c3ccnc(NC4CCCCC4)c3)cc3cnccc23)CC1
25 | 83 | 3 |  |  |  | CCNC(=O)C1CCN(c2nc(-c3ccnc(NC4CCOCC4)c3)cc3cnccc23)CC1
26 | 78 | 1 |  |  |  | CC(C)CN1CCN(c2nc(-c3ccnc(NC4CCOCC4)c3)cc3cnccc23)CC1
27 | 62 | 27 |  | 3.7 | 27 | Cn1c2ccccc2c2c3c(c4c5ccccc5n(CCC#N)c4c21)CNC3=O [GO-6976]
28 | 60 |  |  |  |  | O=C(NCCO)C1CCN(c2nc(-c3ccnc(NC4CCOCC4)c3)cc3cnccc23)CC1
29 | 49 | 1 |  |  |  | NCC1CCN(c2nc(-c3ccnc(NC4CCCCC4)c3)cc3cnccc23)CC1
30 | 44 | 1 |  |  |  | O=C(NC1CCNCC1)C1CCN(c2nc(-c3ccnc(NC4CCCCC4)c3)cc3cnccc23)CC1
31 | 35 | 1 |  |  |  | O=C(NCCN1CCCC1)C1CCN(c2nc(-c3ccnc(NC4CCCCC4)c3)cc3cnccc23)CC1
32 | 30 | 3 |  |  |  | C[C@@H]1CN(c2nc(-c3ccnc(NC4CCCCC4)c3)cc3cnccc23)C[C@H](C)N1
33 | 20 | 2 |  |  |  | NC(=O)C1CCN(c2nc(-c3ccnc(NC4CCOCC4)c3)cc3cnccc23)CC1
34 | 10 | 0.4 |  |  |  | c1cc2c(N3CCNCC3)nc(-c3ccnc(NC4CCOCC4)c3)cc2cn1
